Measurements: ChEMBL document CHEMBL5512640, “Discovery of novel itaconimide-based derivatives as potent HDAC inhibitors for the efficient treatment of prostate cancer” (Eur J Med Chem, 2024)

How the values were obtained:
[1] = molecular target: Histone deacetylase 1 (Homo sapiens, UniProt Q13547); test: Inhibition of human HDAC1 incubated for 10 mins followed by fluorogenic substrate addition by fluorescence based analysis
[2] = system: NCI-H446; test: Antiproliferative activity against human NCI-H446 cells incubated for 96 hrs by MTT assay; assay type: functional, cell-based; settings: NCI-H446, 96 h
[3] = system: HCT-116; test: Antiproliferative activity against human HCT-116 cells incubated for 96 hrs by MTT assay; assay type: functional, cell-based; settings: HCT-116, 96 h
[4] = system: HT-29; test: Antiproliferative activity against human HT-29 cells incubated for 96 hrs by MTT assay; assay type: functional, cell-based; settings: HT-29, 96 h
[5] = molecular target: Histone deacetylase 3 (Homo sapiens, UniProt O15379); test: Inhibition of human HDAC3 incubated for 10 mins followed by fluorogenic substrate addition by fluorescence based analysis
Chain of Histone deacetylase 3 (O15379 whole entry): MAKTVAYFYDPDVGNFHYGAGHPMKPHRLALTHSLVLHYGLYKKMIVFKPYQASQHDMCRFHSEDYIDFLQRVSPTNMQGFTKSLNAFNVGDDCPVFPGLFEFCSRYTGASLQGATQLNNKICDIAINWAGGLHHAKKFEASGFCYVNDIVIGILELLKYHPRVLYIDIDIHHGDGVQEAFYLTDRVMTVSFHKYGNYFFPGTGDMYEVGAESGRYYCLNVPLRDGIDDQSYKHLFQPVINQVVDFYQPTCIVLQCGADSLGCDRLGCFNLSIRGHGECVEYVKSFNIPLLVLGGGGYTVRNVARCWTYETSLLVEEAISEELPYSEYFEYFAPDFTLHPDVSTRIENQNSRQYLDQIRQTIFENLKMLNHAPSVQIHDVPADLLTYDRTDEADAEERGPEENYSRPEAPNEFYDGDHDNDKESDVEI

[6] = molecular target: Histone deacetylase 11 (Homo sapiens, UniProt Q96DB2); test: Inhibition of human HDAC11 incubated for 10 mins followed by fluorogenic substrate addition by fluorescence based analysis
Chain of Histone deacetylase 11 (Q96DB2 whole entry): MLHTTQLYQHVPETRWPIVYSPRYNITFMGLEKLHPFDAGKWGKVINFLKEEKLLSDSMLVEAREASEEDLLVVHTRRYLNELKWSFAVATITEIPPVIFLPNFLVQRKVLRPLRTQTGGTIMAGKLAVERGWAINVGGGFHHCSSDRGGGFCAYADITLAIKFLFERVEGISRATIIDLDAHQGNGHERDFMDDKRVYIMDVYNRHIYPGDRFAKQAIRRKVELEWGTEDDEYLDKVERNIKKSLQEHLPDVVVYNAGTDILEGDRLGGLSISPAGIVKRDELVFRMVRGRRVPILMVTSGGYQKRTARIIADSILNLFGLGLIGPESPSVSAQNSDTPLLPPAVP

[7] = system: DU-145; test: Inhibition of colony formation in human DU-145 cells assessed as suppression of colony formation measured after 2 weeks by crystal violet staining based analysis; assay type: functional, cell-based; settings: dose 0.4-3.2 µM
[8] = system: DU-145; test: Induction of apoptosis in human DU-145 cells assessed as apoptotic rate at 1.6 uM measured after 72 hrs by annexin V-FITC and PI staining based flow cytometry analysis relative to control; assay type: functional
[9] = Cmax in Sprague-Dawley rat at 10 mg/kg, po measured upto 24 hrs by LC-MS/MS analysis; assay type: ADME, organism-based; settings: in vivo
[10] = Acute toxicity in male Sprague-Dawley rat assessed as effect on body weight at 500 to 4500 mg/kg, po measured every 3 days for 15 days; assay type: organism-based; settings: in vivo, 360 h, dose 500-4500 mg/kg, time 15 day
[11] = Acute toxicity in Sprague-Dawley rat assessed as effect on kidney at 500 to 4500 mg/kg, po measured after 15 days; assay type: organism-based; settings: in vivo, 360 h, dose 500-4500 mg/kg, time 15 day
[12] = system: DU-145; test: Antitumor activity against human DU-145 cells xenografted in Balb/c nude mouse model assessed as tumor growth inhibition at high dose administered as po once daily for 40 days relative to control; assay type: functional; settings: time 40 day
[13] = Toxicity in Balb/c mouse assessed as effect on body weight at 100 to 200 mg/kg, po measured upto 40 days; assay type: organism-based; settings: in vivo, 960 h, dose 100-200 mg/kg, time < 40 day

Chain of Histone deacetylase 1 (Q13547 whole entry): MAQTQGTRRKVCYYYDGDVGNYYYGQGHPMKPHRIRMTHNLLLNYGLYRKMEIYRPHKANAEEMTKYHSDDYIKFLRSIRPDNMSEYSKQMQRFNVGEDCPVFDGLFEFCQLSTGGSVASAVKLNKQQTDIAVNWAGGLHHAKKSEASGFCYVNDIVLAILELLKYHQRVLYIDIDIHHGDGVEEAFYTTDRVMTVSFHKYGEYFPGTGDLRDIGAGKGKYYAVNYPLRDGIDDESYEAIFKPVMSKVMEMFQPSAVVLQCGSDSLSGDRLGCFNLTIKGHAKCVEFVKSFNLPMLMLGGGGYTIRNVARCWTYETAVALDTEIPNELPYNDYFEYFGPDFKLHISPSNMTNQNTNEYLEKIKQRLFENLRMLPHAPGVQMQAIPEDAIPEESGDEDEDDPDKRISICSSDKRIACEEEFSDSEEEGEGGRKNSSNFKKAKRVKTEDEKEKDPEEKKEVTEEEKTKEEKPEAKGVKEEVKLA

Compound `COc1ccccc1/C=C1\CC(=O)N(CCCCCCC(=O)NO)C1=O` has an IC50 [1] of 12.6 nM, an IC50 [2] of 650 nM and an IC50 [3] of 470 nM. The IC50 [4] was 1050 nM, the IC50 [5] was 20 nM and the IC50 [6] was over 5000 nM. The inhibition [7] was “Dose-Dependent Effect”, the Activity [8] was 59.87% and the Cmax [9] was 774 ng/mL. For the same compound, the Activity [10] was “Non-Toxic”, the Activity [11] was “Non-Toxic” and the TGI [12] was 68%. The Activity [13] was “Non-Toxic”.
